pIC50: −log10 of the molar value. “And” between values parts separate entries of the source, which are not always exact repeats. Equal values may be shown once.

This is an account of results in PMC9822940, “Antiplasmodial activity, structure–activity relationship and studies on the action of novel benzimidazole derivatives” (Scientific Reports, 2023).

Series [1] relates to P. falciparum HB3 strain. Put plainly: Antiplasmodial activity against P. falciparum HB3 strain in culture. It counts as cell-based, Plasmodium falciparum. Particulars: for GI (growth inhibition percentage) / inhibition at 10 µM: at 10 μM, HB3 strain; for pIC50 / inhibition at 10 µM: Plasmodium falciparum; for pIC50: HB3 strain (chloroquine-sensitive), read-out: IC50; for inhibition at 10 µM: read-out: GI (growth inhibition percentage); for SI (selectivity index): Vero CC50 versus HB3 IC50. The protocol: (§1) In vitro activity of BZ. All BZ derivatives were tested at 10 μM against the HB3 strain of Pf, and for those compounds with a percentage of growth inhibition (% GI) higher than 50%, the IC50 values were determined. In addition, their cytotoxicity on epithelial Vero cell cultures was evaluated to calculate their selectivity indexes (SI), Table 1. An index of 10 or above is expected for a lead compound.
The chloroquine-sensitive […] and chloroquine-resistance 7G8 strain […] of P. falciparum were used throughout. Infected erythrocytes were kept in culture using the protocol established by Haynes et al.[44], basically utilizing human O^+ erythrocytes kept in an RPMI medium supplemented with glutamine and 10% human serum incubated in an atmosphere of 90% N2, 5% O2 and 5% CO2.

A short description of series [2]: Cytotoxicity on epithelial Vero cell cultures. In kind it is cell-based. Particulars: African green monkey, epithelial Vero cells. Here is the method: as §1

In the case of `Cc1ccc2[nH]c(NC(=O)c3ccncc3)nc2c1` [BZ 3], the “GI (growth inhibition percentage)” value in series [1] was “inactive and 0.0%”.

In the case of `O=C(Nc1nc2cc(Cl)ccc2[nH]1)c1nccc2ccccc12` [BZ 23], the “GI (growth inhibition percentage)” value in series [1] was determined as 53.7%.

Turning to `O=C(Nc1nc2cc(Cl)ccc2[nH]1)c1ncccc1Cl` [BZ 14], in series [1], the “GI (growth inhibition percentage)” value amounted to 11.9%.

`O=C(Nc1nc2cc(Cl)ccc2[nH]1)c1ccc(-c2ccccc2)cn1` [BZ 18, N-(5-Chloro-1H-benzimidazol-2-yl)-5-phenylpicolinamide]: the melting point (usually the temperature of the solid-liquid transition) amounted to 214 °C. In series [1], the pIC50 (in general, −log10 of the IC50, conventionally taken in molar units) was 5.64; the inhibition (in general, the share of the control response that was lost under treatment) at 10 µM turned out to be 99.2%; the “SI (selectivity index)” value is on record as 0.3. Moreover, in series [2], half-maximal cytotoxicity (CC50) was put at 0.6 µM.

Turning to `Cc1ccc2[nH]c(NC(=O)c3ncccc3C)nc2c1` [BZ 4, 3-Methyl-N-(5-methyl-1H-benzimidazol-2-yl)picolinamide], the melting point stood at 173 °C. Besides, in series [1], the pIC50 is 5.60, the inhibition at 10 µM was 92.4% and the “SI (selectivity index)” value came out at 2.8. Also, in series [2], half-maximal cytotoxicity (CC50) was put at 6.8 µM.

Regarding `Cc1cccnc1C(=O)Nc1nc2cc(Cl)ccc2[nH]1` [BZ 13, N-(5-Chloro-1H-benzimidazol-2-yl)-3-methylpicolinamide], the melting point was 180 °C. In series [1], the pIC50 is 5.55, the inhibition at 10 µM was found to be 87.3% and the “SI (selectivity index)” value is 3.0. In addition, the CC50 (usually the concentration that lowers cell viability or growth by half) in series [2] was 8.6 µM.

For `Cc1cccc(C(=O)Nc2nc3cc(Cl)ccc3[nH]2)n1` [BZ 19], in series [1], the “GI (growth inhibition percentage)” value is “inactive and 28.0%”.

`CCCCc1ccc(C(=O)Nc2nc3cc(C)ccc3[nH]2)nc1` [BZ 6, 5-Butyl-N-(5-methyl-1H-benzimidazol-2-yl)picolinamide] yielded a melting point of 245 °C. Besides, in series [1], the negative logarithm of the IC50 (pIC50) is 5.62, the inhibition at 10 µM was 90.9% and the “SI (selectivity index)” value is 2.7. For the same molecule, in series [2], half-maximal cytotoxicity (CC50) was put at 6.6 µM.

As to `O=C(Nc1nc2cc(Cl)c(Cl)cc2[nH]1)c1ccccn1` [BZ 36, N-(5,6-Dichloro-1H-benzimidazol-2-yl)picolinamide], the melting point turned out to be 281 °C. Moreover, in series [1], the negative logarithm of the IC50 (pIC50) is 5.62, the inhibition at 10 µM amounted to 81.9% and the “SI (selectivity index)” value is given as 5.0. Further, the CC50 in series [2] was 11.8 µM.

With `O=C(Nc1nc2cc(Cl)ccc2[nH]1)c1cnc2ccccc2c1` [BZ 21], the “GI (growth inhibition percentage)” value in series [1] was found to be 0.0%.

In the case of `Cc1ccc2[nH]c(NC(=O)c3ccnc4ccccc34)nc2c1` [BZ 10], the “GI (growth inhibition percentage)” value in series [1] was found to be 60.5%.

In the case of `O=C(Nc1nc2cc(Cl)ccc2[nH]1)c1ccnc2ccccc12` [BZ 22, N-(5-Chloro-1H-benzimidazol-2-yl)quinoline-4-carboxamide], the melting point came to 262 °C. In series [1], the pIC50 is 5.64, the inhibition at 10 µM was 88.9% and the “SI (selectivity index)” value amounted to 6.9. The half-maximal cytotoxic concentration (CC50) in series [2] is 16.1 µM.

With `COc1ccc2[nH]c(NC(=O)c3ccccn3)nc2c1` [BZ 25], the “GI (growth inhibition percentage)” value in series [1] amounted to 50.9%.

Take `Cc1ccc2[nH]c(NC(=O)c3nccc4ccccc34)nc2c1` [BZ 11]: the “GI (growth inhibition percentage)” value in series [1] came to 0.0%.

As for `CCCCc1ccc(C(=O)Nc2nc3cc(OC)ccc3[nH]2)nc1` [BZ 27, 5-Butyl-N-(5-methoxy-1H-benzimidazol-2-yl)picolinamide], the melting point worked out at 129 °C. Moreover, in series [1], the pIC50 was 5.92, the inhibition at 10 µM was 100% and the “SI (selectivity index)” value worked out at 7.4. In series [2], this molecule came in with a CC50 of 8.5 µM.

For `Cc1ccc2[nH]c(NC(=O)c3cccnc3)nc2c1` [BZ 2], the “GI (growth inhibition percentage)” value in series [1] is “inactive and 0.0%”.

Take `Cc1ccc2[nH]c(NC(=O)c3ccc(C#N)cn3)nc2c1` [BZ 8]: the “GI (growth inhibition percentage)” value in series [1] was “inactive and 37.4%”.

Regarding `O=C(Nc1nc2cc(Cl)ccc2[nH]1)c1ccc2ccccc2n1` [BZ 20], in series [1], the “GI (growth inhibition percentage)” value was determined as 25.9%.

With `COc1ccc2nc(C(=O)Nc3nc4cc(Cl)ccc4[nH]3)ccc2c1` [BZ 24], the “GI (growth inhibition percentage)” value in series [1] was 22.3%.
